Converted amounts (≈) assume the structure as drawn.
Tests used:
Test in all cases: in vitro antibacterial activity (MIC), agar dilution
Format in all cases: cell-based
Candida albicans CCH 442 = conditions: organism code TT; BHI agar, 35-37° C., 20 to 24 hours; unit assumed
How it was run: (§1)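 Steps: dilute compound serially into BHI agar (twelve plates); spot inocula diluted 1:100, or 1:10 for slow-growing Streptococcus; incubate; inspect visually. MIC recorded as lowest level with no growth, slight haze or sparse isolated colonies.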

[1] = system: Enterococcus faecium ATCC 8043; conditions: organism code II; BHI agar, 35-37° C., 20 to 24 hours; unit assumed
How it was run: as §1

Escherichia coli DC-2 = conditions: organism code SS; BHI agar, 35-37° C., 20 to 24 hours; unit assumed
How it was run: as §1

Escherichia coli JUHL = conditions: organism code QQ; BHI agar, 35-37° C., 20 to 24 hours; unit assumed
How it was run: as §1

Escherichia coli SS = conditions: organism code RR; BHI agar, 35-37° C., 20 to 24 hours; unit assumed
How it was run: as §1

[2] = system: Haemophilis Influenzae DILL AMP R; conditions: organism code WW; BHI agar, 35-37° C., 20 to 24 hours; unit assumed
How it was run: as §1

[3] = system: Micrococcus luteus ATCC 4698; conditions: organism code PP; BHI agar, 35-37° C., 20 to 24 hours; unit assumed
How it was run: (§2)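 Endpoint: lowest concentration with no growth, slight haze or sparsely isolated colonies at the inoculum spot, judged against a compound-free BHI control. Strains were replicator-inoculated at 1:100 (1:10 for Streptococcus and other slow growers).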

[4] = system: Micrococcus luteus ATCC 9341; conditions: organism code OO; BHI agar, 35-37° C., 20 to 24 hours; unit assumed
How it was run: as §2

[5] = system: Mycobacterium smegmatis ATCC 114; conditions: organism code UU; BHI agar, 35-37° C., 20 to 24 hours; unit assumed
How it was run: as §1

[6] = system: Nocardia Asteroides ATCC9970; conditions: organism code VV; BHI agar, 35-37° C., 20 to 24 hours; unit assumed
How it was run: as §1

[7] = system: Staphylococcus aureus 1775; conditions: organism code GG; BHI agar, 35-37° C., 20 to 24 hours; unit assumed
How it was run: as §1

[8] = system: Staphylococcus aureus A-5278; conditions: organism code CC; BHI agar, 35-37° C., 20 to 24 hours; unit assumed
How it was run: as §1

[9] = system: Staphylococcus aureus A5177; conditions: organism code BB; BHI agar, 35-37° C., 20 to 24 hours; unit assumed
How it was run: as §1

[10] = system: Staphylococcus aureus ATCC 6538P; conditions: organism code AA; BHI agar, 35-37° C., 20 to 24 hours; unit assumed
How it was run: as §1

[11] = system: Staphylococcus aureus CMX 553; conditions: organism code FF; BHI agar, 35-37° C., 20 to 24 hours; unit assumed
How it was run: as §1

[12] = system: Staphylococcus aureus CMX 642A; conditions: organism code DD; BHI agar, 35-37° C., 20 to 24 hours; unit assumed
How it was run: as §1

[13] = system: Staphylococcus aureus NCTC10649M; conditions: organism code EE; BHI agar, 35-37° C., 20 to 24 hours; unit assumed
How it was run: as §1

[14] = system: Staphylococcus epidermidis 3519; conditions: organism code HH; BHI agar, 35-37° C., 20 to 24 hours; unit assumed
How it was run: as §1

[15] = system: Streptococcus Pneumonia 5649; conditions: organism code ZZA; BHI agar, 35-37° C., 20 to 24 hours; unit assumed
How it was run: as §1

[16] = system: Streptococcus Pneumonia 5979; conditions: organism code ZZ; BHI agar, 35-37° C., 20 to 24 hours; unit assumed
How it was run: as §1

[17] = system: Streptococcus Pneumonia ATCC6303; conditions: organism code XX; BHI agar, 35-37° C., 20 to 24 hours; unit assumed
How it was run: as §1

[18] = system: Streptococcus Pneumonia GYR 1171; conditions: organism code YY; BHI agar, 35-37° C., 20 to 24 hours; unit assumed
How it was run: as §1

[19] = system: Streptococcus agalactiae CMX 508; conditions: organism code KK; BHI agar, 35-37° C., 20 to 24 hours; unit assumed
How it was run: as §1

[20] = system: Streptococcus bovis A-5169; conditions: organism code JJ; BHI agar, 35-37° C., 20 to 24 hours; unit assumed
How it was run: as §1

[21] = system: Streptococcus pyogenes 930; conditions: organism code MM; BHI agar, 35-37° C., 20 to 24 hours; unit assumed
How it was run: as §1

[22] = system: Streptococcus pyogenes EES61; conditions: organism code LL; BHI agar, 35-37° C., 20 to 24 hours; unit assumed
How it was run: as §1

[23] = system: Streptococcus pyogenes PIU 2548; conditions: organism code NN; BHI agar, 35-37° C., 20 to 24 hours; unit assumed
How it was run: as §1

SMILES	MIC (Candida albicans CCH 442) [µg/mL]	MIC [1] [µg/mL]	MIC (Escherichia coli DC-2) [µg/mL]	MIC (Escherichia coli JUHL) [µg/mL]	MIC (Escherichia coli SS) [µg/mL]	MIC [2] [µg/mL]	MIC [3] [µg/mL]	MIC [4] [µg/mL]	MIC [5] [µg/mL]	MIC [6] [µg/mL]	MIC [7] [µg/mL]	MIC [8] [µg/mL]	MIC [9] [µg/mL]	MIC [10] [µg/mL]	MIC [11] [µg/mL]	MIC [12] [µg/mL]	MIC [13] [µg/mL]	MIC [14] [µg/mL]	MIC [15] [µg/mL]	MIC [16] [µg/mL]	other results
CC[C@H]1OC(=O)[C@H](C)C(=O)[C@H](C)[C@@H](O[C@@H]2O[C@H](C)C[C@H](N(C)C)[C@H]2O)[C@](C)(OCC#Cc2ccc(-c3nccs3)s2)C[C@@H](C)C(=O)[C@H](C)[C@H]2NC(=O)O[C@@]21C [Example 28]	> 100	0.05 (≈ 0.0623 µM)	12.5 (≈ 15.6 µM)	25 (≈ 31.2 µM)	0.1 (≈ 0.125 µM)	2 (≈ 2.49 µM)	0.1 (≈ 0.125 µM)	0.01 (≈ 0.0125 µM)	0.2 (≈ 0.249 µM)	0.05 (≈ 0.0623 µM)	> 100	> 100	0.05 (≈ 0.0623 µM)	0.05 (≈ 0.0623 µM)	0.05 (≈ 0.0623 µM)	0.05 (≈ 0.0623 µM)	0.1 (≈ 0.125 µM)	0.05 (≈ 0.0623 µM)	0.25 (≈ 0.312 µM)	1 (≈ 1.25 µM)	MIC [17]: 0.03 µg/mL (≈ 0.0374 µM); MIC [18]: 0.03 µg/mL (≈ 0.0374 µM); MIC [19]: 0.02 µg/mL (≈ 0.0249 µM); MIC [20]: ≤ 0.005 µg/mL; MIC [21]: 12.5 µg/mL (≈ 15.6 µM); MIC [22]: ≤ 0.005 µg/mL; MIC [23]: 0.1 µg/mL (≈ 0.125 µM)
CC[C@H]1OC(=O)[C@H](C)C(=O)[C@H](C)[C@@H](O[C@@H]2O[C@H](C)C[C@H](N(C)C)[C@H]2O)[C@](C)(OCC#Cc2ccc(-c3cncc(C#N)c3)s2)C[C@@H](C)C(=O)[C@H](C)[C@H]2NC(=O)O[C@@]21C [Example 8]	> 100	0.02 (≈ 0.0244 µM)	> 100	50 (≈ 60.9 µM)	0.2 (≈ 0.244 µM)	4 (≈ 4.87 µM)	0.05 (≈ 0.0609 µM)	≤ 0.005	0.78 (≈ 0.95 µM)	0.01 (≈ 0.0122 µM)	> 100	> 100	0.05 (≈ 0.0609 µM)	0.05 (≈ 0.0609 µM)	0.02 (≈ 0.0244 µM)	0.05 (≈ 0.0609 µM)	0.02 (≈ 0.0244 µM)	0.05 (≈ 0.0609 µM)	≤ 0.004	0.25 (≈ 0.305 µM)	MIC [17]: ≤ 0.004 µg/mL; MIC [18]: ≤ 0.004 µg/mL; MIC [19]: 0.01 µg/mL (≈ 0.0122 µM); MIC [20]: ≤ 0.005 µg/mL; MIC [21]: 0.2 µg/mL (≈ 0.244 µM); MIC [22]: ≤ 0.005 µg/mL; MIC [23]: 0.1 µg/mL (≈ 0.122 µM)
CC[C@H]1OC(=O)[C@H](C)C(=O)[C@H](C)[C@@H](O[C@@H]2O[C@H](C)C[C@H](N(C)C)[C@H]2O)[C@](C)(OC/C=C/c2ccc(-c3ccccn3)s2)C[C@@H](C)C(=O)[C@H](C)[C@H]2NC(=O)O[C@@]21C [Example 75]	> 100	0.05 (≈ 0.0627 µM)	25 (≈ 31.3 µM)	50 (≈ 62.7 µM)	0.39 (≈ 0.489 µM)	2 (≈ 2.51 µM)	0.1 (≈ 0.125 µM)	0.02 (≈ 0.0251 µM)	1.56 (≈ 1.95 µM)	0.02 (≈ 0.0251 µM)	> 100	> 100	0.05 (≈ 0.0627 µM)	0.05 (≈ 0.0627 µM)	0.05 (≈ 0.0627 µM)	0.05 (≈ 0.0627 µM)	0.05 (≈ 0.0627 µM)	0.05 (≈ 0.0627 µM)	0.125 (≈ 0.157 µM)	1 (≈ 1.25 µM)	MIC [17]: ≤ 0.004 µg/mL; MIC [18]: ≤ 0.004 µg/mL; MIC [19]: 0.02 µg/mL (≈ 0.0251 µM); MIC [20]: 0.01 µg/mL (≈ 0.0125 µM); MIC [21]: 12.5 µg/mL (≈ 15.7 µM); MIC [22]: 0.02 µg/mL (≈ 0.0251 µM); MIC [23]: 0.1 µg/mL (≈ 0.125 µM)
CC[C@H]1OC(=O)[C@H](C)C(=O)[C@H](C)[C@@H](O[C@@H]2O[C@H](C)C[C@H](N(C)C)[C@H]2O)[C@](C)(OCC#Cc2ccc(-c3cncs3)s2)C[C@@H](C)C(=O)[C@H](C)[C@H]2NC(=O)O[C@@]21C [Example 29]	> 100	0.01 (≈ 0.0125 µM)	50 (≈ 62.3 µM)	25 (≈ 31.2 µM)	0.1 (≈ 0.125 µM)	2 (≈ 2.49 µM)	0.05 (≈ 0.0623 µM)	≤ 0.005	0.39 (≈ 0.486 µM)	≤ 0.005	> 100	> 100	0.05 (≈ 0.0623 µM)	0.05 (≈ 0.0623 µM)	0.02 (≈ 0.0249 µM)	0.05 (≈ 0.0623 µM)	0.02 (≈ 0.0249 µM)	0.05 (≈ 0.0623 µM)	0.25 (≈ 0.312 µM)	1 (≈ 1.25 µM)	MIC [17]: ≤ 0.004 µg/mL; MIC [18]: ≤ 0.004 µg/mL; MIC [19]: 0.01 µg/mL (≈ 0.0125 µM); MIC [20]: ≤ 0.005 µg/mL; MIC [21]: 3.1 µg/mL (≈ 3.87 µM); MIC [22]: 0.01 µg/mL (≈ 0.0125 µM); MIC [23]: 0.05 µg/mL (≈ 0.0623 µM)
CC[C@H]1OC(=O)[C@H](C)C(=O)[C@H](C)[C@@H](O[C@@H]2O[C@H](C)C[C@H](N(C)C)[C@H]2O)[C@](C)(OC/C=C/c2cncc(-c3cncs3)c2)C[C@@H](C)C(=O)[C@H](C)[C@H]2NC(=O)O[C@@]21C [Example 52]	> 100	0.01 (≈ 0.0125 µM)	25 (≈ 31.3 µM)	100 (≈ 125 µM)	0.39 (≈ 0.488 µM)	2 (≈ 2.5 µM)	0.2 (≈ 0.25 µM)	0.01 (≈ 0.0125 µM)	1.56 (≈ 1.95 µM)	0.02 (≈ 0.025 µM)	> 100	> 100	0.05 (≈ 0.0626 µM)	0.05 (≈ 0.0626 µM)	0.05 (≈ 0.0626 µM)	0.05 (≈ 0.0626 µM)	0.05 (≈ 0.0626 µM)	0.05 (≈ 0.0626 µM)	0.25 (≈ 0.313 µM)	> 128	MIC [17]: ≤ 0.004 µg/mL; MIC [18]: ≤ 0.004 µg/mL; MIC [19]: ≤ 0.005 µg/mL; MIC [20]: 0.01 µg/mL (≈ 0.0125 µM); MIC [21]: 100 µg/mL (≈ 125 µM); MIC [22]: 0.02 µg/mL (≈ 0.025 µM); MIC [23]: 0.1 µg/mL (≈ 0.125 µM)
